Data published in patent publication US20240374879A1, “METHODS AND COMPOSITIONS TO REDUCE CELLULAR DEPOSITION, AND HYDROCEPHALUS SHUNT FAILURE” (Wayne State University, priority 2021, published 2024).

Legend:
[1] = test system: Human astrocyte cells; assay: Cell counts of human astrocytes cultured on PDMS discs, GIT 27 as pre-, simultaneous or post-treatment; type: cell-based; settings: for number of cells compared to associated control: vs control; for % Change of average Cell Counts, GIT 27 vs DMSO treated vehicle: GIT 27 1000 μg/mL
Method: PDMS Catheter Creation: Catheter samples were made by creating a polydimethylsiloxane (PDMS, silicone) solution, Sylgard 184 (Dow Corning), at a ratio of 10:1 elastomer to curing agent. This solution was then homogenized and placed into a degasser to remove bubbles. Once all the air bubbles were removed, 200 μL of the PDMS solution was pipetted into a 24 well plate to create flat disk samples for cell culturing. These samples were then degassed again to ensure were no bubbles in the disks and left for 48 hours to cure on a flat substrate.
Media Creation: A media stock solution was created by combining astrocyte media (ScienCell), supplement kit, 10 mL fetal bovine serum (FBS), 5 mL penicillin/streptomycin, and 5 mL astrocyte growth serum (ScienCell), and an additional 10 mL FBS (ScienCell). IL-1β and IL-10 were diluted to a concentration of 50,000 ng/mL and 100,000 ng/mL, respectively, in phosphate buffer solution (PBS, w/v). GIT 27 was dissolved in a dimethyl sulfoxide (DMSO) vehicle (Sigma-Aldrich) to a concentration of 20 mg/mL (w/v).
Media solutions for the different groups were made directly before each media change. Cytokines IL-1β or IL-10 were added to the media stock solution for a final concentration of 14.67 ng/mL. GIT 27 was added for a concentration of 1000 μg/mL in the media stock solution for our experimental group. […] Our vehicle group contained 50 μL/mL DMSO alone, which is proportional to the amount in the GIT 27 treated group. Concentrations were then made for evaluation of dose and time dependency (FIGS. 6A-6F).
Cell Culture: Human astrocyte cells were initially grown in T75 flasks with media changes every three days using basic astrocyte media and washed with Hanks Balanced Salt Solution without Calcium and Magnesium (Gibco). Once the flasks came to confluency, the cells were trypsinized using Trypsin-EDTA at 0.25% (Gibco) and seeded at a seeding density of 250,000 cells per well. These samples were broken up into three treatment groups: control, DMSO, and GIT 27 tested as a pre-treatment, simultaneous treatment, and post-treatment (FIGS. 6A-6F). Each group and treatment time were then either exposed to IL-1β or IL-10 separately at concentrations described for media creation.
Cell Count Collection: Images were taking using a microscope (Fisher Scientific) and microscope attachable digital camera following each media change on days 1, 5, 7, 9, 12, and 14. These images were taken at approximately the center of each 24 well plate well with an area of 5.9788 mm^2. Counts were obtained using the FIJI software by converting the images to 32-bit. Contrast was enhanced to the value of 0.5 and background was subtracted to a value of 10. Finally, the threshold was set to 23-70 to obtain the cell count of each image.
Statistical Analysis: Three conditions were tested in this experiment, treatment group, treatment time, and IL B or IL10 exposure, with a total of 16 different samples tested with an n=five of replicates. The three treatment groups tested were a control, vehicle control (DMSO), and GIT 27 (G27). Each treatment group was tested as a pre-treatment (denoted Pre-), dose simultaneous to treatment (denoted Sim-), and post-treatment (denoted Post-) as time points with respect to shunt insertion represented by exposure to either IL-1β (IL1B) or IL-10 (IL10). Utilizing the abbreviations described here we combined these to allow for an easier understand of the results presented. An example of this can be control Pre-IL1B, DMSO Pre-IL1B, and G27 Pre-IL1B which represents the three treatment groups when used as a pre-treatment to IL-1β exposure.

[2] = test system: macrophage toll-like receptor (TLR) 4 and TLR 2/6 signaling pathway; settings: cited from earlier work
[3] = test system: Human astrocyte cells; assay: Delivery Method: immunofluorescence (DAPI, GFAP) of astrocytes, GIT 27 attached to PDMS or in suspension; type: cell-based
Method: Delivery Method: Following the nanodrop experiment, it was determined that the minimum concentration necessary to attach GIT 27 to the surface of the PDMS was 1000 μg/mL to display any attachment and release from the catheter. […] Using this concentration for sufficient surface coating, human astrocyte cells were cultured onto PDMS discs coated with GIT 27. Samples were also tested by adding GIT 27 at various concentrations in suspension within the cell culture media. Attached GIT 27 samples were conducted at concentrations 1000 and 3000 μg/mL, and for the in suspension concentrations 5, 50, and 1000 μg/mL in astrocyte media were used.
Immunofluorescence was performed using glial fibrillary acidic protein (GFAP) and 4′,6-diamidino-2-phenylindole (DAPI) solution (ThermoFisher). GFAP primary and secondaries were diluted to a ratio of 1:1000 and 5:1000, respectfully, in 0.4% Triton-X in PBS (w/v). Samples were incubated for 24 hours in each solution. After rinsing the samples with PBS, the samples were incubated in a 1:1000 DAPI solution in 0.4% Triton X solution for 30 minutes. Samples were then imaged submerged in PBS using a confocal microscope at 20× magnification and analyzed using Imaris software.

[4] = 1000 μg/mL GIT 27 in suspension, qualitative

## O=C(O)CC1CC(c2ccccc2)=NO1 (stereo not drawn) [GIT 27, 4,5-Dihydro-3-phenyl-5-isoxazoleacetic acid]
[1]; G27 Pre-IL1B compared to G27 Post-IL1B
  cell count by treatment time: significantly fewer
[1]; G27 Pre-IL1B compared to Sim-IL1B
  cell count by treatment time: insignificantly less
[1]; G27 Pre-IL10 compared to G27 Post-IL10
  cell count by treatment time: significantly fewer
[1]; G27 Sim-IL10 compared to G27 Post-IL10
  cell count by treatment time: significantly lower
[1]; Post-IL1B
  number of cells compared to associated control: not significantly different
[1]; Post-IL10
  cell count, difference between the three treatment groups: no effect
[1]; Post-Treatment (C), exposed to IL-1β
  % Change of average Cell Counts, GIT 27 vs DMSO treated vehicle: 94.25%
[1]; Post-Treatment (C), exposed to IL-10
  % Change of average Cell Counts, GIT 27 vs DMSO treated vehicle: −9.74%
[1]; Pre-IL1B, vs DMSO Pre-IL1B
  cell count compared to DMSO: insignificantly lower
[1]; Pre-IL1B, vs control Pre-IL1B
  cell count compared to control: significantly lower
[1]; Pre-Treatment (A), exposed to IL-1β
  % Change of average Cell Counts, GIT 27 vs DMSO treated vehicle: −15.09%
[1]; Pre-Treatment (A), exposed to IL-10
  % Change of average Cell Counts, GIT 27 vs DMSO treated vehicle: 22.97%
[1]; Sim-IL1B
  number of cells compared to associated control: not significantly different
[1]; Sim-IL10
  cell count, difference between the three treatment groups: no effect
[1]; Simultaneous Treatment (B), exposed to IL-1β
  % Change of average Cell Counts, GIT 27 vs DMSO treated vehicle: 50.87%
[1]; Simultaneous Treatment (B), exposed to IL-10
  % Change of average Cell Counts, GIT 27 vs DMSO treated vehicle: −5.50%
[2]
  secretion of pro-inflammatory cytokines IL-1β, IL-10 and IFN-γ: reduces
[2]; macrophages
  TNF-α secretion: inhibits
[3]; [4]
  astrocyte cell bodies (GFAP) labeling compared to all other groups: lowest amount
  immunofluorescent total cell count (DAPI) labeling compared to all other groups: lowest amount
[3]; plasma etched samples with GIT 27 attached to the surface
  GFAP levels compared to controls with no GIT 27 exposure: increased levels
